Assay results: PubChem BioAssay (NCI)
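Each compound was tested at five concentrations against cells in 96-well plates for 48 hours. Abbreviation: GI50, concentration required for 50% inhibition of growth. TGI: total growth inhibition.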

Test system: SF-539 CNS
Experiment: NCI anticancer screen, dose series, 48 h

Point of comparison: NCCCOc1cc2ccccc2cc1C(=O)NCCCOc1cc2ccccc2cc1C(=O)Nc1ccc(Cl)cc1O, GI50 1050 nM. Against it:
- O=C(Nc1ccc(Cl)cc1)Nc1nccs1 — 1.7-fold higher, 1810 nM
- COc1ccc(-c2ccc(NNC(=O)c3ccc(F)cc3)nn2)cc1OC — higher, > 100000 nM
- Cc1noc2c1-c1ccccc1C(c1ccc(Cl)cc1)=N[C@H]2CC(N)=O — 4.9-fold higher, 5170 nM
- O=C(N/N=C/c1ccc(O)cc1O)c1cccnc1 — 2.5-fold higher, 2640 nM
- O=C(NNc1cnccn1)c1nc2cc(F)ccc2n2cccc12 — within 1.5-fold, 847 nM
- NCCCOc1cc(Cl)ccc1NC(=O)c1cc2ccccc2cc1OCCCN — within 1.5-fold, 1500 nM
- COc1cc(/C=C/C(=O)C(C(=O)/C=C/c2ccc(OC(=O)CCNC34CC5CC(CC(C5)C3)C4)c(OC)c2)C(=O)CCNC23CC4CC(CC(C4)C2)C3)ccc1OC(=O)CCNC12CC3CC(CC(C3)C1)C2 (configuration not stated) — 2.2-fold higher, 2270 nM
- CCOC(=O)C1=C(N)Oc2c(sc3c(C)cccc23)C1c1ccc(F)cc1 (configuration not stated) — 2.9-fold lower, 360 nM
- O=C1/C(=C/N2N=C(c3ccc4ccccc4c3)CC2c2ccccc2O)SC(=S)N1c1cccnc1 (configuration not stated) — within 1.5-fold, 1180 nM
- NC(N)=N/N=C(\N=Nc1ccccc1)c1ccc(Cl)cc1 — 2.8-fold higher, 2980 nM
- c1ccc2c(c1)c1ccccc1c1ccccc21 — higher, > 100000 nM
- NC(=O)CNc1ccc([As]=[As]c2ccc(NCC(N)=O)cc2)cc1 (configuration not stated) — 2.7-fold higher, 2800 nM

Point of comparison: NCCCOc1cc(Cl)ccc1NC(=O)c1cc2ccccc2cc1OCCCN, TGI 2.95 µM. Against it:
- O=C(Nc1ccc(Cl)cc1)Nc1nccs1 — 2.2-fold higher, 6.42 µM
- CS(=O)(=O)CS(=O)(=O)OCCCl — 90-fold higher, 266 µM
- COc1ccc(-c2ccc(NNC(=O)c3ccc(F)cc3)nn2)cc1OC — higher, > 100 µM
- Cc1noc2c1-c1ccccc1C(c1ccc(Cl)cc1)=N[C@H]2CC(N)=O — higher, > 100 µM
- O=C(N/N=C/c1ccc(O)cc1O)c1cccnc1 — 6.5-fold higher, 19.3 µM
- O=C(NNc1cnccn1)c1nc2cc(F)ccc2n2cccc12 — higher, > 31.6 µM
- C=C1C(=O)OC2C1CC(OC(C)=O)/C(C)=C/CCC1(C)OC21 (configuration not stated) — higher, > 100 µM
- NCCCOc1cc2ccccc2cc1C(=O)NCCCOc1cc2ccccc2cc1C(=O)Nc1ccc(Cl)cc1O — within 1.5-fold, 2.57 µM
- COc1cc(/C=C/C(=O)C(C(=O)/C=C/c2ccc(OC(=O)CCNC34CC5CC(CC(C5)C3)C4)c(OC)c2)C(=O)CCNC23CC4CC(CC(C4)C2)C3)ccc1OC(=O)CCNC12CC3CC(CC(C3)C1)C2 (configuration not stated) — 1.7-fold higher, 5.01 µM
- CCOC(=O)C1=C(N)Oc2c(sc3c(C)cccc23)C1c1ccc(F)cc1 (configuration not stated) — within 1.5-fold, 3.48 µM
- O=C1/C(=C/N2N=C(c3ccc4ccccc4c3)CC2c2ccccc2O)SC(=S)N1c1cccnc1 (configuration not stated) — 1.7-fold higher, 5.16 µM
- NC(N)=N/N=C(\N=Nc1ccccc1)c1ccc(Cl)cc1 — 2.7-fold higher, 8.1 µM
- c1ccc2c(c1)c1ccccc1c1ccccc21 — higher, > 100 µM
- Cc1c2c(C(N)=O)nccc2c(C)c2c1c1ccccc1n2Cc1ccccc1 — 13-fold higher, 37.7 µM
- NC(=O)CNc1ccc([As]=[As]c2ccc(NCC(N)=O)cc2)cc1 (configuration not stated) — higher, > 100 µM

Test system: SK-MEL-5 melanoma
Experiment: NCI anticancer screen, dose series, 48 h

Point of comparison: O=C(Nc1ccc(Cl)cc1)Nc1nccs1, GI50 0.514 µM. Against it:
- COc1ccc(-c2ccc(NNC(=O)c3ccc(F)cc3)nn2)cc1OC — 88-fold higher, 45 µM
- Cc1noc2c1-c1ccccc1C(c1ccc(Cl)cc1)=N[C@H]2CC(N)=O — 14-fold higher, 6.96 µM
- O=C(N/N=C/c1ccc(O)cc1O)c1cccnc1 — 6.4-fold higher, 3.3 µM
- O=C(NNc1cnccn1)c1nc2cc(F)ccc2n2cccc12 — 2.1-fold higher, 1.07 µM
- NCCCOc1cc(Cl)ccc1NC(=O)c1cc2ccccc2cc1OCCCN — 2.9-fold higher, 1.47 µM
- NCCCOc1cc2ccccc2cc1C(=O)NCCCOc1cc2ccccc2cc1C(=O)Nc1ccc(Cl)cc1O — 2.6-fold higher, 1.36 µM
- COc1cc(/C=C/C(=O)C(C(=O)/C=C/c2ccc(OC(=O)CCNC34CC5CC(CC(C5)C3)C4)c(OC)c2)C(=O)CCNC23CC4CC(CC(C4)C2)C3)ccc1OC(=O)CCNC12CC3CC(CC(C3)C1)C2 (configuration not stated) — 6.5-fold higher, 3.36 µM
- CCOC(=O)C1=C(N)Oc2c(sc3c(C)cccc23)C1c1ccc(F)cc1 (configuration not stated) — 2.3-fold higher, 1.18 µM
- O=C1/C(=C/N2N=C(c3ccc4ccccc4c3)CC2c2ccccc2O)SC(=S)N1c1cccnc1 (configuration not stated) — 5.9-fold higher, 3.01 µM
- NC(N)=N/N=C(\N=Nc1ccccc1)c1ccc(Cl)cc1 — 7.3-fold higher, 3.73 µM
- c1ccc2c(c1)c1ccccc1c1ccccc21 — higher, > 100 µM
- NC(=O)CNc1ccc([As]=[As]c2ccc(NCC(N)=O)cc2)cc1 (configuration not stated) — 3.8-fold higher, 1.95 µM

Point of comparison: O=C1/C(=C/N2N=C(c3ccc4ccccc4c3)CC2c2ccccc2O)SC(=S)N1c1cccnc1 (configuration not stated), TGI 39 µM. Against it:
- O=C(Nc1ccc(Cl)cc1)Nc1nccs1 — 2.5-fold lower, 15.3 µM
- CS(=O)(=O)CS(=O)(=O)OCCCl — 20-fold higher, 777 µM
- COc1ccc(-c2ccc(NNC(=O)c3ccc(F)cc3)nn2)cc1OC — higher, > 100 µM
- Cc1noc2c1-c1ccccc1C(c1ccc(Cl)cc1)=N[C@H]2CC(N)=O — higher, > 75.2 µM
- O=C(N/N=C/c1ccc(O)cc1O)c1cccnc1 — within 1.5-fold, 27.6 µM
- O=C(NNc1cnccn1)c1nc2cc(F)ccc2n2cccc12 — 12-fold lower, 3.13 µM
- NCCCOc1cc(Cl)ccc1NC(=O)c1cc2ccccc2cc1OCCCN — 14-fold lower, 2.81 µM
- C=C1C(=O)OC2C1CC(OC(C)=O)/C(C)=C/CCC1(C)OC21 (configuration not stated) — higher, > 100 µM
- NCCCOc1cc2ccccc2cc1C(=O)NCCCOc1cc2ccccc2cc1C(=O)Nc1ccc(Cl)cc1O — 14-fold lower, 2.8 µM
- COc1cc(/C=C/C(=O)C(C(=O)/C=C/c2ccc(OC(=O)CCNC34CC5CC(CC(C5)C3)C4)c(OC)c2)C(=O)CCNC23CC4CC(CC(C4)C2)C3)ccc1OC(=O)CCNC12CC3CC(CC(C3)C1)C2 (configuration not stated) — 2.9-fold lower, 13.4 µM
- CCOC(=O)C1=C(N)Oc2c(sc3c(C)cccc23)C1c1ccc(F)cc1 (configuration not stated) — 4.6-fold lower, 8.49 µM
- NC(N)=N/N=C(\N=Nc1ccccc1)c1ccc(Cl)cc1 — 2.6-fold lower, 14.8 µM
- c1ccc2c(c1)c1ccccc1c1ccccc21 — higher, > 100 µM
- Cc1c2c(C(N)=O)nccc2c(C)c2c1c1ccccc1n2Cc1ccccc1 — 1.7-fold higher, 67.5 µM
- NC(=O)CNc1ccc([As]=[As]c2ccc(NCC(N)=O)cc2)cc1 (configuration not stated) — 7.5-fold lower, 5.17 µM

Test system: SW-620 colon
Experiment: NCI anticancer screen, dose series, 48 h

Point of comparison: Cc1noc2c1-c1ccccc1C(c1ccc(Cl)cc1)=N[C@H]2CC(N)=O, GI50 26100 nM. Against it:
- O=C(Nc1ccc(Cl)cc1)Nc1nccs1 — 65-fold lower, 400 nM
- COc1ccc(-c2ccc(NNC(=O)c3ccc(F)cc3)nn2)cc1OC — higher, > 100000 nM
- O=C(N/N=C/c1ccc(O)cc1O)c1cccnc1 — 6-fold lower, 4340 nM
- O=C(NNc1cnccn1)c1nc2cc(F)ccc2n2cccc12 — 66-fold lower, 397 nM
- NCCCOc1cc(Cl)ccc1NC(=O)c1cc2ccccc2cc1OCCCN — 17-fold lower, 1580 nM

Point of comparison: NCCCOc1cc(Cl)ccc1NC(=O)c1cc2ccccc2cc1OCCCN, TGI 3.06 µM. Against it:
- O=C(Nc1ccc(Cl)cc1)Nc1nccs1 — higher, > 100 µM
- CS(=O)(=O)CS(=O)(=O)OCCCl — 360-fold higher, 1100 µM
- COc1ccc(-c2ccc(NNC(=O)c3ccc(F)cc3)nn2)cc1OC — higher, > 100 µM
- Cc1noc2c1-c1ccccc1C(c1ccc(Cl)cc1)=N[C@H]2CC(N)=O — higher, > 100 µM
- O=C(N/N=C/c1ccc(O)cc1O)c1cccnc1 — higher, > 100 µM
- O=C(NNc1cnccn1)c1nc2cc(F)ccc2n2cccc12 — higher, > 100 µM
- C=C1C(=O)OC2C1CC(OC(C)=O)/C(C)=C/CCC1(C)OC21 (configuration not stated) — higher, > 100 µM
